{
  "source": "patent US20200308622A1",
  "about": "“Phage-Mediated Molecular Detection Methods and Related Aspects” (United States of America as represented by the Secretary of …, priority 2017, published 2020)",
  "key": {"[1]": {"system": "MRSA strain SA-1012.COI", "experiment": "PMMD (phage K RT-qPCR) antibiotic sensitivity assay, MRSA", "assay_type": "cell-based, Staphylococcus aureus", "conditions": "cefoxitin 4 μg/ml, with vs without fox, phage K gp125 RNA qPCR", "protocol": "(§1) Staphylococcus aureus (S. aureus) bacterial cultures were grown for one hour in LB-Lennox (10 g/l Tripone, 5 g/l yeast extract and 5 g/l NaCl) media at 37° C. with strong aeration (225 rpm shaking). For antibiotic sensitivity assays the cultures were grown for one or three hours, as indicated, and cefoxitin (Sigma-Aldrich) was added at a final concentration of 4 μg/ml using a 1,000× stock in water.\n(§2) The reactions were performed by mixing 50 μl of S. aureus bacterial cultures (˜2×10^9 cfu/ml) and 50 μl of a phage K lysate ( about 5×10^8 pfu/ml) or 1 μl of CsCl gradient purified phage K (about 1×10^10 pfu/ml). The mixtures were incubated on ice for 3-4 minutes and the infections were allowed to proceed for 10 minutes, unless indicated otherwise, at 37° C. with shaking (400 rpm). Five minutes prior to the end of the incubation, lysostaphin (Sigma-Aldrich) w as added from a 20× stock (2 mg/ml).\n(§3) Single-step fluorescent quantitative or real-time PCR (qPCR) was done with Luna one-step RT-qPCR kit (NEB) using low profile clear 0.2 ml PCR tubes and optical ultraclear flat caps (BioRad). The reactions were run in a CFX96 real-time PCR detection system (BioRad) with CFX Manager 3. Quantification cycle values (Cqs) were auto calculated by the software, and ranged front about […]. […] 10 minutes/35× (95° C. 10 seconds, 60° C. 30 seconds, plate read). […]"}, "[2]": {"system": "MSSA strain RN4220", "experiment": "PMMD (phage K RT-qPCR) antibiotic sensitivity assay, MSSA", "assay_type": "cell-based, Staphylococcus aureus", "conditions": "cefoxitin 4 μg/ml, with vs without fox, phage K gp125 RNA qPCR", "protocol": "as §1, §2, §3"}},
  "data": [
    {"smiles": "CO[C@@]1(NC(=O)Cc2cccs2)C(=O)N2C(C(=O)O)=C(COC(N)=O)CS[C@@H]21", "note": "[fox, cefoxitin]", "values": [
      {"measurement": "Cq increase in the presence of fox", "setting": "[1]; one hour of incubation", "value": "about 1.0"},
      {"measurement": "Cq increase in the presence of fox", "setting": "[1]; three hours of incubation", "value": "about 0.0"},
      {"measurement": "increase of Cq values on addition of fox in the media", "setting": "[2]; one hour of incubation", "value": "about 1.5"},
      {"measurement": "increase of Cq values on addition of fox in the media", "setting": "[2]; three hours of incubation", "value": "about 11.5"}
    ]}
  ]
}
